Measurements taken from US20120329761A1, “USE OF TIGECYCLINE FOR TREATMENT OF CANCER” (UNIVERSITY HEALTH NETWORK, priority 2010, published 2012).

How the values were obtained:
TEX cells = test: ROS generation, DCF-DA and DHE staining; type: cell-based, human; settings: time-points up to 24 hours
Description: FIG. 4. […] (A) Cells from TEX, OCI-AML2 and two primary AML patients were treated with increasing concentrations (2.5 μM and 5 μM) of tigecycline for 36 and 48 hours of tigecycline. Total proteins were extracted and analyzed by western blotting for Cox-1, Cox-2, Cox-4, grp78, XIAP, actin and tubulin. (B) TEX and AML patient cells were treated with increasing concentrations (2.5 μM and 5 μM) of tigecycline. Cox-1, Cox-2, and Cox-4 mRNA expression relative 18S was determined by quantitative RT-PCR. Data is shown as mean±SD. (C) TEX cells were treated with increasing concentrations of tigecycline and chloramphenicol (CAP) for 72 hours. Complex I, II and IV enzyme activity relative to citrate synthase activity was determined as described in materials and methods. (D) Cells from TEX, primary AML patients, and normal donors were treated with increasing concentrations of tigecycline. Mitochondrial membrane potential (Δψ) was determined by staining cells with JC-1 dye, and flow cytometry analysis (Red/Green ratio). Reactive oxygen species generation (ROS) was determined by staining with h2-DCFDA and Dihydroethidium (DHE).
A byproduct of the mitochondrial enzyme activities of the electron transport chain is the generation of reactive oxygen species (ROS). […] Therefore, the role of tigecycline on ROS generation in leukemia cells by analyzing hydrogen peroxide ions (H2O2) using a dichlorofluorescein dye (DCF-DA), and superoxide anions using dihydroethidium (DHE) was examined.

[1] = tested on: acute myeloid leukemia (AML); settings: 13 patients treated; cited from earlier work

Row | Compound | ROS generation (TEX cells) | complete remission (number of patients) [1] | partial remissions (number of patients) [1]
1 | CC[C@H]1/C=C/C=C/C[C@@H](C)[C@H](O)[C@@](C)(O)C(=O)[C@@H](C)[C@H](O)[C@@H](C)C(=O)[C@@H](C)[C@H](O)[C@@H](C)/C=C/C(=O)O[C@@H]2[C@H](C)[C@H](CC1)O[C@]1(CC[C@H](C)[C@H](C[C@@H](C)O)O1)[C@H]2C [oligomycin] | rapid increases in ROS levels | – | –
2 | NC(=O)c1ncn([C@@H]2O[C@H](CO)[C@@H](O)[C@H]2O)n1 [ribavirin] | – | 1 | 2
3 | C=C(C)[C@H]1Cc2c(ccc3c2O[C@@H]2COc4cc(OC)c(OC)cc4[C@@H]2C3=O)O1 [rotenone] | rapid increases in ROS levels | – | –
4 | antimycin | rapid increases in ROS levels | – | –
